# From US8906865B2, “Treatment of inflammation and/or endotoxic shock” (ISIS Innovation Limited, priority 2007, dated 2014)
# Columns and labels:
# [1] = tested on: C57B16/J mice, zymosan-induced peritonitis; experiment: Zymosan-induced peritonitis in mice; assay type: in vivo, mouse; parameters: Reduction of MCP-1 in peritoneal lavage fluid (FIG. 7F) / Reduction of KC in peritoneal lavage fluid (FIG. 7F) / Reduction of TNFα in peritoneal lavage fluid (FIG. 7F) / Reduction of IL-1β in peritoneal lavage fluid (FIG. 7F) / Reduction of IL-6 in peritoneal lavage fluid (FIG. 7F): concentration or dose not given beside the values; conditions: for Protection in vivo as judged by monocyte and neutrophil levels (FIG. 7C-D): same dose and time as C15
# Procedure: FIGS. 7A and 7B—C57B16/J mice were dosed i.p with PBS or chemerin15 (0.32 ng/kg) followed by injection with PBS or zymosan (10 μg, ˜2×10^6 particles per cavity) 1 h later. Peritoneal exudate cells were harvested by peritoneal lavage at multiple time points (FIGS. 7A and 7B; 5-6 mice/treatment) or after 4 h (FIGS. 7C-7E; 6-15 mice/group). FIGS. 7C-7E—total cell numbers in lavage fluid were quantified and cellular composition (neutrophils vs mononuclear phagocytes) determined using FACS analysis. Cells were blocked with 2.4G2 anti-FcγRII/III and stained with Ly-6G-PE and 7/4-FITC. Gates were constructed around two populations, the neutrophils (N; 7/4high, Ly-6Ghigh) and inflammatory monocytes (Mo; 7/4high, Ly-6Glow). FIG. 7E—representative FACS plots are shown for each treatment group at 4 h post-zymosan. FIG. 7F—peritoneal lavage fluid was assayed for TNFα and KC by ELISA and IL-6, IL-1β and MCP-1 by Luminex assay. C15; Chemerin15, Z; Zymosan. ***, P<0.001; **, P<0.01 ** relative to zymosan-treated animals (Student's t test). FIG. 7G—Mice (6-8/treatment) were dosed i.p with zymosan (10 μg) and with C15 (8 pg) or PBS either 1 h beforehand (C15 pre-treatment) or 2 h later (C15 post-treatment). Peritoneal lavage was carried out 4 h post-zymosan challenge. Reference in this figure to the peptide C15 refers to the peptide described previously as C15m;
# More specifically, male C57B16/J mice (8-12 weeks) were injected intra-peritoneally with 0.5 ml PBS or 0.5 ml Chemerin15-mouse (0.32 ng/kg) followed by injection with 0.5 ml PBS or Zymosan (2×10^6 particles per cavity) an hour later. After 4 hours animals were sacrificed and peritoneal cavities washed with 5 ml PBS-3 mM EDTA. Total cell counts were obtained using Trypan blue exclusion test. For determination of cellular composition (Neutrophils vs mononuclear phagocytes), cells were blocked with 2.4G2 mAB for 5 mins and stained with PE-conjugated anti-mouse Ly-6G and FITC-conjugated anti-mouse 7/4 mAB for 10 mins. Cells were fixed in 1% formaldehyde prior to FACS analysis with CellQuest software. Gates were constructed around two populations, the neutrophils (N; 7/4^high, Ly-6G^high) and inflammatory monocytes (Mo; 7/4^high). C15 refers to Chemerin15-mouse. Z refers to Zymosan. p<0.01 **; p<0.05 * relative to Zymosan-treated.
# Neutrophil (7/4^high, Ly-6G^high), monocyte (7/4^high, Ly-6G^low) and resident macrophage populations (7/4^low, Ly-6G^low) were determined according to Gordon S and Taylor P R Nat Rev Immunol. 2005; 5(12):953; Taylor P R et al. Eur J Immunol. August 2003; 33(8):2090-2097; and Taylor P R et al. Eur J Immunol. July 2005; 35(7):2163-2174.
# The above result was further investigated. To determine the anti-inflammatory properties of the C15 peptide in vivo a time-course experiment was performed extending over 48 h. Neutrophil (7/4high, Ly-6Ghigh) and monocyte (7/4high, Ly-6Glow) populations in peritoneal lavage fluid were determined by FACS analysis according to published protocols (Taylor, P. R. et al., (2005). Eur J Immunol 35:2163-2174; Taylor, P. R., (2003). Eur J Immunol 33:2090-2097). Administration of zymosan into the mouse peritoneal cavity produced a time-dependent extravasation of inflammatory cells into the peritoneal cavity, which followed the typical profile of an acute inflammatory response (FIG. 7A-B, solid line). Neutrophils were the first leukocytes to infiltrate the cavity, detectable at 2 h post-zymosan with peak neutrophilia occurring at 4 h (1.95×10^6 cells). Monocyte influx into the inflamed peritoneal cavity was first detectable after 4 h (0.69×10^6 cells), peaking at 24 h post-zymosan injection (1.25×10^6 cells) and declining thereafter. Pre-treatment with C15 at a dose of 8 pg/mouse (≈0.32 ng/kg) 1 h prior to zymosan challenge brought the peak neutrophilia forward to 2 h with approximately 50% the magnitude of that of zymosan challenged mice (reduced from 1.25×10^6 to 0.62×10^6 cells; FIG. 7A, dotted line). […]
# [2] = tested on: PMθ stimulated with Zymosan; experiment: TNFα secretion by murine macrophages stimulated with Zymosan (ELISA); assay type: cell-based, mouse; conditions: 1 pM pre-treatment 1 h, Zymosan 15 h
# Procedure: PMθ were cultured under various conditions: Untreated; Zymosan for 15 h; Chemerin (1 pM) pre-treatment for 1 h+Zymosan for 15 h. The bar graphs show mean expression of TNFα as determined by ELISA±SEM. Experiments were performed with triplicate determinations for each treatment. Representative data from three independent experiments employing cells from different donors are shown in FIG. 12. p<0.001 ***; p<0.01 ** relative to Zymosan-treated samples. Dexa refers to dexamethasone ([…]), nd refers to below the lower limit of detection (0.25 ng/ml).
# [3] = tested on: PMθ (peritoneal macrophages); experiment: Checkerboard analysis (chemotaxis versus chemokinesis); assay type: cell-based, mouse; conditions: for Chemotaxis versus chemokinesis (FIG. 13): C140 10-1000 pM, C15m 10-1000 pM
# Procedure: Checkerboard analysis allows differentiation between chemotaxis and chemokinesis. Chemotaxis is indicated by migration toward a higher concentration of chemoattractant in the lower well. Chemokinesis refers to increased non-directional cell movement and occurs regardless of the concentration gradient present. Checkerboard analysis was performed by pre-incubating cells with C140 (10-500 pM) or C15m (10-1000 pM) and allowing them to migrate towards C140 (10-1000 pM) or C15m (10-1000 pM), respectively in the lower well to form a checkerboard of concentrations.
# More specifically, PMθ were recruited following a 4 day peritoneal stimulation with BioGEL beads. Peritoneal cavities of male C57B16/J mice were lavaged with 5 ml PBS-2 mM EDTA. Cells were centrifuged and resuspended in RPMI supplemented with 0.5% BSA and 25 mM Hepes. Cells (0.5×10^6) were incubated with C140 or C15m for 30 mins before the chemotaxis assay and then allowed to migrate towards chemoattractant in the bottom well over 4 h. Filters were fixed in 4% formalin, then nuclei were stained with DAPI and visualised. Serum free media (SFM) was used as a negative control (−/−) and the CC chemokine RANTES as a positive control (25 ng/ml). The bar graphs in FIG. 13 show the mean Migration Index±SEM for each treatment group. Each bar represents at least triplicate wells and at least 3 pictures taken per treatment. p<0.001 *** relative to SFM-treated wells.
# [4] = 8 pg/mouse 1 h before zymosan, 4 h post-zymosan
# [5] = 0.32 ng/kg (8 pg/mouse) i.p. 1 h before zymosan, 4 h
# [6] = C15 2 h post-zymosan, lavage 4 h post-zymosan
molecule,measurement,setting,value
AGEDPHGYFLPGQFA (listed as Mus sp.) [C15],Suppression of neutrophil infiltration (FIG. 7A),"[1]; 8 pg/mouse 1 h before zymosan, 2 h post-zymosan",50%
same,Suppression of neutrophil infiltration (FIG. 7A),[1]; [4],66%
same,Suppression of peritoneal monocytes (FIG. 7B),[1]; [4],63%
same,Suppression of peritoneal monocytes (FIG. 7B),"[1]; 8 pg/mouse 1 h before zymosan, 8 h post-zymosan",61%
same,Suppression of neutrophil infiltration (FIG. 7A),"[1]; 8 pg/mouse 1 h before zymosan, 24 h post-zymosan",50%
same,Suppression of peritoneal monocytes (FIG. 7B),"[1]; 8 pg/mouse 1 h before zymosan, 48 h post-zymosan",64%
same,Peritoneal neutrophils at 2 h (peak neutrophilia under C15),"[1]; 8 pg/mouse 1 h before zymosan, zymosan alone 1.25×10^6",0.62×10^6 cells
same,Time of peak neutrophilia,"[1]; 8 pg/mouse 1 h before zymosan, zymosan alone 4 h",2 h
same,Reduction of Zymosan-elicited monocyte recruitment (FIG. 6),[1]; [5],42%
same,Reduction of Zymosan-elicited neutrophil recruitment (FIG. 6),[1]; [5],52%
same,Levels of TNFα in zymosan-treated mice (FIG. 6),[1]; 0.32 ng/kg i.p. 1 h before zymosan,reduced
same,Rate of monocyte influx into the inflamed cavity,"[1]; 2-4 h post-zymosan, zymosan alone 0.51×10^6/h",180000 h⁻¹
same,Reduction of IL-1β in peritoneal lavage fluid (FIG. 7F),[1]; 4 h post-zymosan,67%
same,Reduction of IL-6 in peritoneal lavage fluid (FIG. 7F),[1]; 4 h post-zymosan,67%
same,Reduction of KC in peritoneal lavage fluid (FIG. 7F),[1]; 4 h post-zymosan,38%
same,Reduction of MCP-1 in peritoneal lavage fluid (FIG. 7F),[1]; 4 h post-zymosan,59%
same,Reduction of TNFα in peritoneal lavage fluid (FIG. 7F),[1]; 4 h post-zymosan,51%
same,Decrease in monocyte levels (FIG. 7D),"[1]; C15 1 h prior to zymosan, 4 h",62%
same,Decrease in neutrophil numbers (FIG. 7C),"[1]; C15 1 h prior to zymosan, 4 h",63%
same,Monocyte levels (FIG. 7D),"[1]; C15 1 h prior to zymosan, 4 h, zymosan alone 0.69×10^6",0.30×10^6
same,Neutrophil numbers (FIG. 7C),"[1]; C15 1 h prior to zymosan, 4 h, zymosan alone 1.9×10^6",0.78×10^6
same,"Decrease in monocyte recruitment, C15 post-treatment (FIG. 7G)",[1]; [6],42%
same,"Decrease in neutrophil recruitment, C15 post-treatment (FIG. 7G)",[1]; [6],60%
same,"Monocyte number, C15 post-treatment (FIG. 7G)","[1]; C15 2 h post-zymosan, lavage 4 h post-zymosan, zymosan alone 0.69×10^6",0.42×10^6 cells
same,"Neutrophil number, C15 post-treatment (FIG. 7G)","[1]; C15 2 h post-zymosan, lavage 4 h post-zymosan, zymosan alone 1.9×10^6",0.83×10^6 cells
same,Dose with efficacy against sterile peritonitis in mice,"[1]; mouse, in vivo",0.00032 µg/kg
same,Dose giving maximal reduction in zymosan-elicited neutrophil and monocyte recruitment,"[1]; single i.p. dose, 4 h post-zymosan",8 pg/mouse
same,Suppression of Zymosan-induced TNF expression (FIG. 12),[2],21%
same,Induction of macrophage chemotaxis relative to C140,[3],much weaker inducer of macrophage chemotaxis
same,Chemotaxis versus chemokinesis (FIG. 13),[3],elicit true chemotaxis rather than chemokinesis
AGEDPHGYFLPGQFAFS (listed as Mus sp.) [C17m],Suppression of Zymosan-induced TNF expression (FIG. 12),[2],30%
"AGEDPHGYALPGQAA (Mutant C15) [C15-M, control peptide, mutant C15 (F148A & F153A), reference compound]",Protection in vivo as judged by monocyte and neutrophil levels (FIG. 7C-D),[1],not be protective
"GLFHDQAGPPAGYEF (Scrambled C15) [C15-S, control peptide, scrambled C15, reference compound]",Protection in vivo as judged by monocyte and neutrophil levels (FIG. 7C-D),[1],not be protective
"Chemerin: 140 amino acid mouse Chemerin protein of Sequence ID no: 34 (protein, listed as Mus sp.) TVGTEPELSETQRRSLQVALEEFHKHPPVQLAFQEIGVDRAEEVLFSAGTFVRLEFKLQQTNCPKKDWKKPECTIKPNGRRRKCLACIKMDPKGKILGRIVHCPILKQGPQDPQELQCIKIAQAGEDPHGYFLPGQFAFS",Chemotaxis versus chemokinesis (FIG. 13),[3],elicit true chemotaxis rather than chemokinesis
